Reference: US4301313A, “Halogenated ethynyl biphenyls” (Eli-Lilly and Company, priority 1974, dated 1981)
“And” between values parts separate entries of the source, which are not always exact repeats. Identical values can stand only once.

Tests used:
[1] = ultraviolet-induced erythema blocking test, oral (modified Winder method); type: in vivo, guinea pig (male albino); conditions: Cavia porcellus, guinea pig, weighted scores 1.0-2.5 h after UV, dose which provides 50% inhibition
Method: The compounds of the present invention were evaluated for anti-inflammatoryactivity by the ultraviolet-induced erythema blocking test. The test procedures were a modification of the Winder method (Winder, C. V.; Wax, J.; Burr, V.; Been, M.; and Posiere, C. E.: A Study of Pharmacological Influences on Ultraviolet Erythema in Guinea Pigs. Arch. Int. Pharmacodyn. 116: 261, 1958). Male albino guinea pigs weighing 240-300 gm. were used. The hair on the back was clipped and chemically depilated 15-18 hours before each experiment. The animals were fasted overnight, and on the day of the experiment, were randomized and placed in clear plastic partitioned holders 10×20 cm. wide and 15 cm. high.
The compounds to be tested were suspended in 1% methyl cellulose in water, utilizing a tissue homogenizer. The suspensions were administered orally in a volume of 2.0 ml./kg. of body weight. Control animals received an equal amount of the vehicle.
The source of ultraviolet light was a Hanovia lamp (Kromayer-Model 10). A notebook reinforcement ring was placed upon the lens of the lamp to provide an area of contrast for grading purposes. The lens was then placed in contact with the skin of the guinea pig's back. Exposure time to UV was for a period of 4 seconds. Beginning one hour after exposure and thereafter at half-hour intervals for another 11/2 hours, the degree of resulting erythema was graded by an arbitrary scoring system based upon the degree of contrast and redness formed. Anti-inflammatory agents delay the development of the erythema and have their greatest effect at the initial grading periods. The scores were, therefore, weighted by factors of 4, 3, 2, and 1 at the 1.0, 1.5, 2.0, and 2.5 hour scoring times, respectively. The erythema was graded as follows:
Total scores from each treatment group of four guinea pigs were compared to the scores of the control group. The percent inhibition was calculated as follows: [formula] In the case of compounds showing inhibition, retesting was carried out at a plurality of doses to enable calculation of an ED50 for each such compound. "ED50 " designates that dose which provides 50% inhibition. Calculation of the ED50 was either by a standard linear regression method or by estimation from a dose-response curve of three or more points. The compounds so tested and their ED50 s were as follows: […]

[2] = adjuvant-induced arthritis test (paw volume); type: in vivo, rat (male albino); conditions: rat, oral
[3] = carrageenin-induced hind paw inflammation; type: in vivo; conditions: Rattus norvegicus
Method: (§1) Representative compounds were also evaluated for anti-inflammatory activity in the test method described by C. A. Winter at 111 Proc. Soc. Exp. Biol. Med., 544 (1962). In this method, inflammation is created by injecting carrageenin into the hind paw of rats. Test compounds are administered prior to injection to determine percent inhibition of the subsequent inflammation, in comparison with control animals.

[4] = carrageenin induced test, compound administered about 20 hours prior; type: in vivo; conditions: rat, dose 10 (unit not given), about 20 hours prior to test
Method: as §1
Each of 4-biphenylylacetylene and (4-(2-fluorophenyl)phenyl)acetylene was evaluated again in the carrageenin induced test method reported in Examples 60-80. However, in these tests, the compound was administered about 20 hours prior to the test procedures.

[5] = analgesic activity, acetic acid-induced writhing; type: in vivo, mouse (albino male); conditions: mouse, p.o., dose reducing writhing frequency by 50%; 30, 90, 180 minutes after administration
Method: Representative compounds were also evaluated for analgesic activity. The evaluation was conducted by using acetic acid-induced writhing in mice as the pain model. Clinically effective analgesis are effective when tested in this model: see Koster et al., "Acetic Acid for Analgesic Screening," 18 Fed. Proc. 412 (1959).
In a method similar to that reported by Koster et al., standard strain albino male mice weighing 20-22 grams were fasted overnight. The respective compound or vehicle (as control) was administered by gastric lavage (p.o.). Each compound was administered in an aqueous suspension of 1% methylcellulose in water. […] At 30, 90, and 180 minutes after administration, writhing was induced by the intraperitoneal administration of 55 mg./kg. of acetic acid (0.55%). Each treatment group consisted of 5 mice and separate groups were examined at each observation time. The total number of writhes for the treatment group were counted in a 10-minute observation period starting 5 minutes after the acetic acid administration. The treatment totals were compared to controls and a percent inhibition calculated as follows: [formula] […] An ED50, which represented the dose that would reduce the writhing frequency by 50%, was estimated from a dose-reponse curve of three or more points. A dose range was reported if only two points were availale for the dose response curve and they bracketed the 50% level. If data was available at 100 mg./kg., only, then the estimated ED50 was reported simply as less than 100 (<100).

[6] = dose not printed (line below dose 25)

With C#Cc1ccc(-c2ccccc2)cc1 [4-biphenylylacetylene, 4-Biphenylylacetylene] the ED50 [1] was 0.9 mg/kg, the “Percent Inhibition of Volume Increase, Day 7” value ([2]; dose 0.3 (unit not given)) was 15% and the “Percent Inhibition of Volume Increase, Day 14” value ([2]; dose 0.3 (unit not given)) was 0%. For the same compound, the “Percent Inhibition of Volume Increase, Day 7” value ([2]; dose 1 (unit not given)) was 0%, the “Percent Inhibition of Volume Increase, Day 14” value ([2]; dose 1 (unit not given)) was 0% and the “Percent Inhibition of Volume Increase, Day 7” value ([2]; dose 3 (unit not given)) was 14%. The “Percent Inhibition of Volume Increase, Day 14” value ([2]; dose 3 (unit not given)) was 7%, the “Percent Inhibition of Volume Increase, Day 7” value ([2]; dose 25 (unit not given)) was 29% and the “Percent Inhibition of Volume Increase, Day 14” value ([2]; dose 25 (unit not given)) was 37%. The “Percent Inhibition of Volume Increase, Day 7” value [2, 6] was 37%, the “Percent Inhibition of Volume Increase, Day 14” value [2, 6] was 23% and the inhibition in vivo at 0.5 mg/kg ([3]; 0.5 mg./kg.) was 0%. The inhibition in vivo at 3 mg/kg ([3]; 3 mg./kg.) was 36%, the inhibition in vivo at 5 mg/kg ([3]; 5 mg./kg.) was 37% and the inhibition in vivo at 10 mg/kg ([3]; 10 mg./kg.) was 42%. The inhibition in vivo at 20 mg/kg ([3]; 20 mg./kg.) was 45%, the inhibition in vivo at 50 mg/kg ([3]; 50 mg./kg.) was 41% and the “% Inhibition” value [4] was 44% and 28%. The “Estimated ED50” value [5] was 50 mg/kg.
